Measured values reported in patent US5041426A, “Immune system enhancing 3-β-d-ribofuranosylthiazolo[4,5-d]pyridimine nucleosides and nucleotides” (priority 1988, dated 1991).
Where two headings read alike, the source gives them in different places.

What was measured:
[1] = test system: Reticulum-cell Sarcoma M5076; assay: Mean life span of mice with metastatic reticulum-cell sarcoma; assay type: in vivo, mouse
Description: Effect of drug treatment on the mean life span of host animals implanted with metastatic reticulum-cell sarcoma M5076 was measured using the same test protocol as per example 54. The host animals were drug dosed for 20 days as per example 54, however, as opposed to example 54 they were monitored for survival.
(§1) ^a Fragments of reticulumcell sarcoma M5076 (≈14 mg) were
(§2) implanted sc in the left flank of BDF1 female mice and ip bolus
(§3) injections of drug were initiated 24 hrs later. The drug was delivered on
(§4) the basis of 0.01 ml/g mouse weight. Control mice received a 0.09%
solution of NaCl delivered on the same basis. Six mice were used per
treatment group. Treatment give qd for days 1-20 and animals monitored
after treatment for survival.

[2] = test system: Human Peripheral Blood Mononuclear Cells; assay: In vitro potentiation of IgM production by human PBMNC or B cells (ELISA); assay type: cell-based
Description: After incubation, supernatants were harvested and checked for […]

[3] = test system: YAC1 target cells; assay: Natural killer cell activity in nude/nude mice (in vivo treatment, spleen cells); parameters: species or system mouse
Text: Compound 7 was also able to potentiate markedly the natural killer cell activity in T cell deficient (nude/nude) mice as is shown in Table 6.
^a Three mice in each group received saline or compound 7 through i.p
route, spleens were removed one day after the treatment, cells were
cells. Each value represents average ±SD cytotoxic activity of three

[4] = test system: Encephalomyocarditis virus; assay: Single versus multiple treatments on Encephalomyocarditis virus infection in mice; assay type: in vivo, mouse; conditions: for Mean Survival Time: of mice that died
[5] = test system: Human Coronavirus; assay: Antiviral activity against human coronavirus infection in 14 day old mice; conditions: half daily doses at -24 and -18 h, of mice that died
[6] = test system: murine B16 melanoma; assay: Artificially induced pulmonary metastatic foci of B16 melanoma in mice; assay type: in vivo, mouse; conditions: Group 2: 100 mg/kg i.p. 24 h before tumor injection
Description: Test drug, compound 7, was given to groups of test animals. The groups includes a first control group, a second group given drug 24 hours prior to intravenous tumor injection, a third group given drug both 24 hours prior to intravenously tumor injection and 72 hours post tumor injection and a fourth group given drug 72 hours post tumor injection.
^a 10 week old, female C57B1/6 mice in groups of 5 each were injected
intravenously with 5 × 10^5 of B16 melanoma tumor cells. The
mice in groups 2, 3 and 4 were treated by injection of 100 mg/kg of drug

[7] = test system: Friend Leukemia virus; assay: Friend Leukemia virus induced spleenomegaly; assay type: in vivo; conditions: further test
Text: As is evident from the above tables antiviral activity against a variety of viruses is seen.

[8] = test system: Reticulum-cell Sarcoma M5076; assay: Reduction of reticulum-cell sarcoma metastatic foci in mice; assay type: in vivo, mouse
Description: Utilizing the protocol of Alessandri, G., Giavazzi, R., Falautano, P., Spreafico, F., Garattini, S., and Mantovani, A., European J. Cancer, 17:651-658, 1981, the antimetastatic activity of Compound 7 is seen in a sarcoma M5076 tumor system.
Fragments of reticulum-cell sarcoma M5076 were introduced into mice. The animals were treated with compound 7 for 20 days at various dosages. After treatment, the required tissues were collected, fixed in Bouin's solution and subjected to microscopic observation to enumerate metastatic foci. The results are shown in table 26 as the number of metastatic foci and table 27 as the number of mice with metastatic foci. In table 26 both the range and the median number of foci for each test group is indicated.
as §1, §2, §3, §4
solution of NaCl delivered on the same basis. Seven mice were used per
treatment group. Treatment give qd for days 1- 20.

[9] = test system: Banzi Virus; assay type: in vivo, mouse; conditions: compound 7 100 mg/kg at -24 h, saline days 0-6; of mice that died
[10] = test system: San Angelo Virus; assay type: in vivo, mouse; conditions: for Mean Survival Time: Time (21 days)
[11] = test system: Mouse Cytomegalovirus; assay: Antiviral activity against mouse cytomegalovirus infection in mice
[12] = test system: Herpes Simplex Virus Type 1; assay: Antiviral activity against Herpes simplex virus type 1 infection in mice; assay type: in vivo, mouse; conditions: at -48, -24, and -2 h
[13] = test system: Herpes Simplex Virus Type 2; assay: Antiviral activity against Herpes simplex virus type 2 infection in mice; assay type: in vivo, mouse; conditions: for Mean Survival Time: at -48, -24, and -2 h
Description: In this test Compound 7 was tested against both Herpes Simplex Type 1 Virus and Herpes Simplex Type 2 Virus. […] In each of these tests a placebo was utilized for control purposes. The survival time reflects survival time of those animals which succumbed during the test. […]
^b A 2% sodium bicarbonate solution was used as the placebo and as
diluent for Compound -7.
^c Statistically significant (p < .05) difference between the
drugtreated and placebo control mice, determined by the twotailed ttest.

[14] = 62 mg/kg ip qd days 1-20, p < 0.005

## Nc1nc2c(sc(=O)n2[C@@H]2O[C@H](CO)[C@@H](O)[C@H]2O)c(=O)[nH]1 [Compound 7, 5-Amino-3-β-D-ribofuranosylthiazolo[4,5-d]pyrimidine-2,7(6H)-dione]
[1]; 37 mg/kg ip qd days 1-20
  Increased Life Span: 7.0 % of Control
  Postinoculation Life Span: 32.33 ± 3.67 days
[1]; 62 mg/kg ip qd days 1-20
  Increased Life Span: 19.8 % of Control
[1]; 62 mg/kg ip qd days 1-20, p 0.01
  Postinoculation Life Span: 36.33 ± 0.82 days
[1]; 104 mg/kg ip qd days 1-20
  Increased Life Span: 20.3 % of Control
[1]; 104 mg/kg ip qd days 1-20, p < 0.03
  Postinoculation Life Span: 36.50 ± 4.55 days
[2]; SAC activated PBMNC
  increase of IgM over cultures without compound 7: over a two fold increase
[2]; up to
  increase in IgM production: up to 34 fold
[3]; 1.67 mg i.p., E:T 50:1
  % Natural Killer Cell Cytotoxicity: 43 ± 12%
[3]; 1.67 mg i.p., E:T 100:1
  % Natural Killer Cell Cytotoxicity: 56 ± 12%
[3]; 1.67 mg i.p., E:T 150:1
  % Natural Killer Cell Cytotoxicity: 61 ± 14%
[3]; 3.34 mg i.p., E:T 50:1
  % Natural Killer Cell Cytotoxicity: 38 ± 6%
[3]; 3.34 mg i.p., E:T 100:1
  % Natural Killer Cell Cytotoxicity: 56 ± 6%
[3]; 3.34 mg i.p., E:T 150:1
  % Natural Killer Cell Cytotoxicity: 61 ± 12%
[3]; both doses tested
  increase with respect to saline control: over two fold
[4]; 200 mg/kg at -24 h, then 50 mg/kg/day day 0-6
  Mean Survival Time: 9.5 ± 2.1 days
[4]; 200 mg/kg at -24 h only
  Mean Survival Time: 6.0 ± 1.3 days
[4]; daily dose of 50 mg/kg after 200 mg/kg
  protection, daily 50 mg/kg versus single 200 mg/kg dose: protected to a greater degree
[5]; 50 mg/kg
  Mean Survival Time: 6.9 ± 2.2 days
[5]; 100 mg/kg
  Mean Survival Time: 7.2 ± 2.0 days
[5]; 200 mg/kg
  Mean Survival Time: 7.0 ± 1.4 days
[6]
  Mean No. Of Metastatic Foci in Lungs: 8
[7]
  antiviral activity against Friend Leukemia virus induced spleenomegaly: little or no antiviral activity
[8]; 37 mg/kg ip qd days 1-20
  Mice With Metastatic Foci in Lung (+/7): 7/7
  Number of Metastatic Foci in Liver, Range: 0-17
  Number of Metastatic Foci in Lung, Range: 1-11
[8]; 37 mg/kg ip qd days 1-20, p < 0.005
  Number of Metastatic Foci in Liver, Medium: 1
[8]; 37 mg/kg ip qd days 1-20, p < 0.01
  Number of Metastatic Foci in Lung, Median: 6
[8]; 37 mg/kg ip qd days 1-20, p < 0.05
  Mice With Metastatic Foci in Liver (+/7): 4/7
[8]; 62 mg/kg ip qd days 1-20
  Mice With Metastatic Foci in Lung (+/7): 6/7
  Number of Metastatic Foci in Liver, Range: 0-1
  Number of Metastatic Foci in Lung, Range: 0-29
[8]; [14]
  Mice With Metastatic Foci in Liver (+/7): 1/7
  Number of Metastatic Foci in Liver, Medium: 0
[8]; 62 mg/kg ip qd days 1-20, p < 0.09
  Number of Metastatic Foci in Lung, Median: 2
[8]; 104 mg/kg ip qd days 1-20
  Number of Metastatic Foci in Liver, Range: 0-0
  Number of Metastatic Foci in Lung, Range: 0-4
[8]; 104 mg/kg ip qd days 1-20, p < 0.0005
  Mice With Metastatic Foci in Liver (+/7): 0/7
[8]; 104 mg/kg ip qd days 1-20, p < 0.0009
  Number of Metastatic Foci in Liver, Medium: 0
[8]; 104 mg/kg ip qd days 1-20, p < 0.003
  Number of Metastatic Foci in Lung, Median: 0
[8]; 104 mg/kg ip qd days 1-20, p < 0.025
  Mice With Metastatic Foci in Lung (+/7): 3/7
[9]
  Mean Survival Time: 9.3 ± 1.0 days
[10]; 50 mg/kg/day, once a day at -2 h and days 2, 4, 6
  Mean Survival Time: > 13.0 ± 0.0 days
[10]; 100 mg/kg/day, once a day at -2 h and days 2, 4, 6
  Mean Survival Time: > 21 days
[10]; 200 mg/kg/day, -2 h and days 2, 4, 6, half daily doses twice a day
  Mean Survival Time: > 21 days
[10]; 200 mg/kg/day, half-daily doses at 24 and 16 h pre-virus (prophylactic)
  Mean Survival Time: > 21 days
[10]; therapeutic and prophylactic mode
  antiviral activity compared with Ribavirin: antiviral activity equal to that of Ribavirin
[11]; 50 mg/kg/day, once a day at -2 h and days 2, 4, 6 (therapeutic)
  Mean Survival Time: 6.3 ± 1.1 days
[11]; 50 mg/kg/day, single dose 24 h pre-virus (prophylactic)
  Mean Survival Time: 6.5 ± 0.8 days
[11]; 100 mg/kg/day, once a day at -2 h and days 2, 4, 6 (therapeutic)
  Mean Survival Time: 6.0 ± 0.8 days
[11]; 100 mg/kg/day, single dose 24 h pre-virus (prophylactic)
  Mean Survival Time: 7.0 ± 1.4 days
[11]; 200 mg per kg, prophylactic mode
  cure: 100%
[11]; 200 mg/kg/day, half-daily doses 24 and 16 h pre-virus (prophylactic)
  Mean Survival Time: > 21 days
[12]; 50 mg/kg/day
  Mean Survival Time: 14.8 ± 5.0 days
[12]; 100 mg/kg/day
  Mean Survival Time: 11.4 ± 1.8 days
[12]; 200 mg/kg/day
  Mean Survival Time: 11.0 ± 1.7 days
[13]; 50 mg/kg/day
  Mean Survival Time: 11.8 ± 2.3 days
[13]; 100 mg/kg/day
  Mean Survival Time: 11.2 ± 1.5 days
[13]; 200 mg per kg in the mouse
  toxicity: partially toxic
[13]; 200 mg/kg/day
  Mean Survival Time: 7.2 ± 3.9 days
[13]; 200 mg/kg/day, days 1 and 2 post virus inoculation
  deaths from drug toxicity: Three mice died on days 1 and 2
[13]; 200 mg/kg/day, excluding three toxicity deaths
  survival time of the rest of the mice that died: 9.6 ± 0.8 days
